According to patent publication US8796230B2, “Ivermectin antagonizes ethanol inhibition in P2X4 receptors” (University of Southern California, priority 2010, dated 2014):
Positions count from the first letter of the chain named.

Assays:
[1] = biological target: T1, mutant P2X4Rs at position 336 (Rattus norvegicus, UniProt P51577, M336Q); assay: Two-electrode voltage-clamp of ATP-induced currents in mutant P2X4Rs with substitutions at position 336 in Xenopus oocytes; type: cell-based; details: Met336 substituted with Gln; IVM 3 μM
T1 construct: expressed in transfected cells; host or cells: Xenopus laevis oocytes injected with cRNA
T1 sequence (P51577 1-388 M336Q): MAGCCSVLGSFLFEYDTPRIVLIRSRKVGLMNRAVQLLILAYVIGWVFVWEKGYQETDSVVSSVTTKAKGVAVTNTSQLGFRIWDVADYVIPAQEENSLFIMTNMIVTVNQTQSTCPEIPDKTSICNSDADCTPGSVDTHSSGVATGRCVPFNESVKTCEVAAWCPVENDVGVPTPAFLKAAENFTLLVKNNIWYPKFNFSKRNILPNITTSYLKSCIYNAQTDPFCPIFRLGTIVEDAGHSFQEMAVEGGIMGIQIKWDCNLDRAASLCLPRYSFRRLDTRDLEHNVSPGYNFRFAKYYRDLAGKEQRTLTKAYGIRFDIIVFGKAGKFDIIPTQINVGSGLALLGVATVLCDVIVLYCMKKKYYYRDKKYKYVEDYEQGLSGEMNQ
Experimental: (§1) Site-directed mutagenesis and cRNA synthesis. The cDNA of rat P2X4R (GenBank accession No. X87763) was sub-cloned into pcDNA3 vector (Invitrogen, Carlsbad, Calif.). Mutagenesis was performed to introduce single point mutations using QuickChange IIXL Site-Directed Mutagenesis kit (Stratagene, La Jolla, Calif.). The sequences of mutant constructs were verified using automated DNA sequencing (USC/Norris DNA Core Facility, University of Southern California).
(§2) Whole-cell voltage-clamp recordings. Two-electrode voltage-clamp recordings of oocytes were performed using a Warner Instruments Model OC-725C oocyte clamp amplifier (Hamden, Conn.) using procedures published earlier^5,6.
(§3) Experimental procedures. To induce currents and test the effects of alcohols and IVM in the present experiments, maximal (100 μM) or submaximal ATP concentrations (EC5-10 furthered referred to as EC10) were used. It has been previously shown that the use of EC10 can maximize the effects of ethanol and minimize receptor desensitization 18,19. The washout time between agonist applications was at least 5-10 min to allow complete re-sensitization of the receptors^18, 19.
(§4) Effects of the drugs were tested after a stable response to ATP EC10 was obtained. After a sufficient washout time (5-15 min), the cells were challenged with the same ATP EC10 to ensure an accurate response to the drugs and to asses any change in the baseline level.
(§5) IVM and alcohol applications.
(§6) Data analysis. Data are obtained from several batches of oocytes of at least 3 different frogs and are expressed as mean±SEM. Ethanol (hexanol) and/or IVM effects are presented as percentage change of peak currents evoked by ATP EC10 alone. Data were fitted to a concentration-response curve by using the following logistic equation: I=Imax*[drug]/([drug]+(EC50)), where I/Imax is the percentage of the maximum obtainable response, EC50 is the concentration producing a half-maximal response. GraphPAD Prism software (San Diego, Calif.) was used for data analysis and curve fitting. Statistical analysis was performed using unpaired t-test with significance set at P<0.05.

[2] = system: mutant P2X4Rs at position 336; assay: as above; type: cell-based, rat; details: IVM 3 μM
Experimental: as §1, §2, §3, §4, §5, §6

[3] = biological target: T2, P2X4Rs (Rattus norvegicus, UniProt P51577); assay: Surface biotinylation and Western blotting of P2X4R surface expression in oocytes; type: cell-based; details: 3 μM IVM in the presence of 1 μM ATP; 20 s and 2 min
T2 construct: expressed in transfected cells; host or cells: Xenopus laevis oocytes injected with cRNA
T2 sequence (P51577 1-388): T1 sequence (P51577 1-388 M336Q) with Q336M
Experimental: Surface biotinylation and Western blotting. Oocytes expressing P2X4R cRNA were treated with 3 μM IVM in the presence and absence of 1 μM ATP and incubated with 1.0 mg/ml membrane-impermeable sulfo-NHS-SS-biotin (Pierce Biotechnology, Rockford, Ill.) for 1 hr on ice. After lysis, the biotinylated proteins were precipitated by overnight incubation with streptavidin beads (Pierce Biotechnology) and extracted using SDS sample buffer. Protein lysates of total and biotinylated fractions were then run on 10% SDS-PAGE, transferred to PVDF membranes and blotted with a rabbit P2X4R antibody (Millipore, Temecula, Calif.). Following incubation with the secondary anti-rabbit antibody, the P2X4R bands were visualized using enhanced chemiluminescence (Pierce Biotechnology).

[4] = biological target: T3, rat WT P2X4 receptor (Rattus norvegicus, UniProt P51577); assay: Comparison of Ivermectin analogues: two-electrode voltage-clamp of ATP EC10 currents in rat WT P2X4 receptor in Xenopus oocytes; type: cell-based
T3 construct: expressed in transfected cells; host or cells: Xenopus laevis oocytes injected with cRNA
T3 sequence (P51577 1-388): T1 sequence (P51577 1-388 M336Q) with Q336M
Experimental: Isolation of Xenopus Oocytes and cRNA Injections. Xenopus laevis frog (Nasco; WI) maintenance, oocyte isolation and cRNA injections were performed according to protocols as described previously (11,12,24).
Transcription of cDNA to cRNA. XL-Blue E. coli competent cells (Stratagene; CA) were transformed with rat WT P2X4 receptor cDNAs cloned into pcDNA3 vector (Invitrogen; CA). The isolated DNA was linearized and transcribed to result in capped cRNA, which was dissolved in nuclease-free water and stored at −70° C. until injection.
Whole-Cell Voltage Clamp Recording. […] Electrodes were prepared and used to impale the oocyte that was continuously perfused at the rate of 3-4 ml/min by extracellular bathing solution per procedures previously published (11,12,24). The peak currents recorded using a strip-chart recorder (Barnstead/Thermolyne, Iowa) were used in data analysis. All experiments were performed at room temperature (20-23° C.).
Experimental Procedures. Maximal ATP currents were induced by 15 s application of 100 μM ATP. Submaximal ATP concentrations (EC10) were applied for 20 s to generate currents. Ethanol and ABM/IVM were co-applied with ATP EC10. Washout time between drug applications was at least 5 min.
Data Analysis. Data are obtained from several batches of at least 3 different oocyte batches and are presented as percentage change of peak currents evoked by ATP EC10 alone±SEM. GraphPAD Prism software (San Diego, Calif.) was used for data analysis and curve fitting. Statistical analysis was performed using Student's unpaired t-test and significance set at P<0.05.

[5] = system: uninjected oocytes; assay: Resting membrane currents in uninjected oocytes
Description: IVM and alcohol applications. […] To allow comparison of the effects of IVM with those of ethanol, the same co-application protocol was used for IVM.

CC[C@H](C)[C@H]1O[C@]2(CC[C@@H]1C)C[C@@H]1C[C@@H](C/C=C(\C)[C@@H](O[C@H]3C[C@H](OC)[C@@H](O[C@H]4C[C@H](OC)[C@@H](O)[C@H](C)O4)[C@H](C)O3)[C@@H](C)/C=C/C=C3\CO[C@@H]4[C@H](O)C(C)=C[C@@H](C(=O)O1)[C@]34O)O2 [IVM, 5-O demethyl-22,23-dihydroavermectin A1a]
IVM sensitivity compared to non-polar bulky substitutions [1]: approximately the same effect | degree of IVM potentiation compared to WT P2X4Rs ([2]; Met336 substituted with Ala or Val): markedly increased | sensitivity to IVM ([2]; Met336 substituted with Arg or Glu): eliminated sensitivity | degree of IVM potentiation compared to WT P2X4Rs ([2]; Met336 substituted with Phe or Trp): increased IVM potentiation | surface expression levels of P2X4Rs in oocytes [3]: did not change | antagonism of the inhibitory effects of ethanol ([4]; IVM co-applied with ethanol (FIGS. 9A and B)): antagonizes | potentiation of ATP-induced currents, concentration dependence ([4]; co-application and pre-incubation (FIGS. 10C and 10D)): concentration dependent | resting membrane currents in uninjected oocytes [5]: did not affect
